Data taken from patent publication US12557812B2, “Method and composition for water treatment” (BROMINE COMPOUNDS LTD., priority 2019, dated 2026).

Tests used:
[1] = test system: Pseudomonas aeruginosa biofilm; assay: Sequential application of CDA then biocide on 3-day-old biofilm grown in CDC biofilm reactor (single tube method); type: cell-based; details: biocide 10 ppm
[2] = test system: biofilm culture derived from fresh-water mixed microbial community obtained from cooling tower water; assay: Simultaneous CDA and biocide on mixed biofilm from cooling tower water, 24-well plates; type: cell-based; details: 15 ppm DBNPA, 310 nM CDA, two hours (FIG. 5B)
Procedure: (§1) The effect of bromine-containing biocide in combination with CDA on pre-grown biofilms was studied. The experiment was carried out utilizing (A) the P. aeruginosa strain PA14 and (B) mixed bacterial species derived from environmental and industrial water.
(§2) Bacteria were cultured in EPRI medium supplemented with Hutners mineral solution and glucose (0.2%). Microorganisms were incubated at room temperature (22° C.), under aerobic conditions with shaking. The biofilm culture system used included polystyrene 24-well plates that were treated with protein to enhance attachment and growth of biofilm bacteria according to the method described in Davies D G, Marques C N, 2009, J Bacteriol 191:1393-1403.
(§3) Following inoculation with 1 mL bacterial culture, spent medium was removed and replaced with sterile medium every 24 hours for 3 days, and a final medium exchange was performed 3 hours prior to treatment. Additionally, the medium was exchanged prior to treatment in order to remove planktonic bacteria. Treatments consisted of 100 μL of 310 nM CDA and bromine-containing biocide, or bromine-containing biocide alone at concentrations used in commercial water treatment, water was used as a carrier, for a contact time determined by activity of each biocide and ranging from 1 hour to 24 hours, as detailed below for each of the tested biocides. […]

[3] = Storage stability of biocide/CDA liquid concentrates (HPLC); type: physicochemical; details: Example 6 concentrate C103-PEG200-H2O-CDA-BHT 20:50:30:0.1:0.1; 25° C., two months
Procedure: 22 mg of cis-2-decenoic acid (CiVentiChem, 96.72% purity) were charged into 50 ml flask, equipped with a stirrer 3.99 gr of C-103 (ICL, batch 640160147) were added, followed by 9.97 gr of PEG200 (Merck 8.07483.5000 Lot 56904983 451), 5.95 gr of DI water and 22 mg of BHT (Aldrich B1378-100G, BCBH9491V). The obtained solution was stirred till complete clarification; sonication at +30° C. is recommended if some particles are observed. Clear colorless solution of a total […] and 20:50:30:0.1:0.1 weight ratio of C103-PEG200-H2O-CDA-BHT was obtained.
The solution was tested to determine the stability of the biocide and CDA and under storage at 25° C. over a two-month period.
47.6 mg or cis-2-decenoic acid (CiVentiChem, 96.72% purity) were charged into 50 ml flask, equipped with a stirrer. 9.01 gr of Bronopol (ICL, batch 17101607) were added, followed by 18.03 gr of propylene glycol (Biolab 16200201 Lot 1007861), 3.0 gr of DI water and 31.2 mg of BHT (Aldrich B1378-100G, BCBH9491V). After stirring for several minutes, undissolved traces of BHT were filtered through filtering paper for BHT particle removal. Clear colorless solution of a total 30 gr and 30:60:10:0.158:0.1 weight ratio of Bronopol-PG-H2O-CDA-BHT was obtained.

[4] = test system: P. aeruginosa strain PA14 biofilm; assay: Simultaneous application of CDA and biocide on 3-day biofilm in 24-well plates; type: cell-based, Pseudomonas aeruginosa; details: 15 ppm DBNPA, 310 nM CDA, two hours (FIG. 3)
Procedure: as §1, §2
Following inoculation with 1 mL bacterial culture, spent medium was removed and replaced with sterile medium every 24 hours for 3 days, and a final medium exchange was performed 3 hours prior to treatment. Additionally, the medium was exchanged prior to treatment in order to remove planktonic bacteria. Treatments consisted of 100 μL of 310 nM CDA and bromine-containing biocide, or bromine-containing biocide alone at concentrations used in commercial water treatment, water was used as a carrier, for a contact time determined by activity of each biocide and ranging from 1 hour to 24 hours, as detailed below for each of the tested biocides.
Following the treatment, the medium from each well was removed by pipet and 1 mL of DE neutralization broth was added in order to stop the treatment. Bacteria from each well were then removed by scraping the biofilm formed in the well with a sterile cell-scraper, and 1.0 mL of culture was transferred to chilled (4° C.) 9.0 mL DE neutralizing broth and homogenized for 15 seconds at 40,000 rpm on ice. Further dilutions were performed prior to enumeration (further neutralizing biocide activity). Recovery of bacteria were tested at different dilutions of biocide in water, in LB medium with thioglycolate and in DE neutralizing broth to ensure the active agent was properly neutralized. Viable bacteria were enumerated via the drop plate method. Each biocide was evaluated using 24-well plates with 8 wells each for the control cultures (Ctl) inoculated with P. aeruginosa but not treated, a CDA minus test (−CDA) treated with bromine-containing biocide only, and a CDA plus test treated with bromine-containing biocide and CDA (+CDA).

[5] = test system: undefined mixed microbial biofilm cultures derived from an environmental water source; assay: Simultaneous CDA and biocide on mixed biofilm from environmental water, 24-well plates; type: cell-based; details: 15 ppm DBNPA, 310 nM CDA, two hours (FIG. 5A)
Procedure: as §1, §2, §3

[6] = test system: P. aeruginosa (ATCC 700888) massive biofilm; assay: Sequential CDA then biocide on massive biofilm grown in drip flow tubes (modified ASTM 2647-13); type: cell-based, Pseudomonas aeruginosa; details: 30.0 ppm DBNPA 3 h after 310 nM CDA 2 h (FIG. 18)
Source text: The effect of the sequential addition of CDA and bromine-containing biocide was studied using P. aeruginosa biofilm grown in the drip flow tubes (according to a modification of standard ASTM 2647-13, standard Test Method for Quantification of Pseudomonas aeruginosa Biofilm Grown Using Drip Flow Biofilm Reactor with Low Shear and Continuous Flow). This method produces massive biofilm resulting with harsh conditions that are very difficult to treat. The addition of the bromine-containing biocide took place 120 min after the addition of 310 nM CDA (the biocide that was tested in this study was DBNPA).
• a) A continuous once-through tube system was configured by using silicone coated latex tubes, connected to a peristaltic pump via additional silicone tubing. • b) The silicone coated latex tubes were inoculated by syringe injection of overnight cultures of P. aeruginosa (ATCC 700888), 5*10^7 CFU/ML in 10% TSB (Tryptic Soy Broth). […]
The following treatments were conducted: • 1. […] Each dilution was cultured in duplicate (on R2A agar) for colony growth using the pour plating method. • h) The plates were incubated at 36° C. for 17-20 h. • i) The appropriate number of colonies were counted. […]

Structure (SMILES): N#CC(Br)(Br)C(N)=O [DBNPA, 2,2-dibromo-3-nitrilopropionamide]
- Log reduction vs. control: biocide alone ([1]; 1 h contact time, 3-day-old biofilm): ~3 log units
- Enhancement ([1]; 310 nM CDA combination vs biocide alone): ~2 log units
- Log reduction vs. control: combination of the 310 nM CDA and biocide ([1]; 1 h CDA 310 nM then 1 h biocide): ~5 log units
- enhancement by combined treatment relative to biocide alone ([1]; text of Example 2, 310 nM commercial CDA (97% by GC)): two
- biofilm reduction by biocide alone ([1]; text of Example 2, 1 h): reduces the biofilm
- effect of biocide and CDA compared with biocide alone [2]: improved result
- degradation under storage (HPLC) [3]: Neither DBNPA nor CDA underwent degradation
- effect of biocide and CDA compared with biocide alone [4]: improved effect
- effect of biocide and CDA compared with biocide alone [5]: improved result
- enhancement of biocidal effect by combined treatment over biocide alone [6]: ~2 log orders
